ChEMBL document CHEMBL1144869, “Introduction of a chemical constraint in a short peptide derived from human acidic fibroblast growth factor elicits mitogenic structural determinants” (2003)

Legend:
NIH3T3 = test: Displacement of human acidic FGF from FGF receptor of mouse 3T3 cells at 0-200 uM; assay type: cell-based
Mus musculus = species: Mus musculus; test: Mitogenic effect on BALB/c 3T3 A31 fibroblast culture at 0-200 uM; assay type: functional; conditions: BALB/c3T3, read-out: ED50 (the source's name)

| Structure (SMILES) | ID50 (NIH3T3) | EC50 (Mus musculus) |
| --- | --- | --- |
| CC(=O)N[C@@H](Cc1c[nH]c2ccccc12)C(=O)N[C@@H](Cc1ccccc1)C(=O)N[C@H](C(=O)NCC(=O)N[C@@H](CC(C)C)C(=O)N[C@@H](CCCCN)C(=O)N[C@@H](CCCCN)C(=O)N[C@@H](CC(N)=O)C(=O)NCC(=O)N[C@@H](CO)C(=O)N[C@@H](CO)C(=O)N[C@@H](CCCCN)C(=O)N[C@@H](CCCN=C(N)N)C(=O)NCC(=O)N1CCC[C@@H]1C(=O)N[C@@H](CCCN=C(N)N)C(=O)N[C@H](C(N)=O)[C@@H](C)O)C(C)C | 50 µM |  |
| CC(=O)N[C@@H](Cc1c[nH]c2ccccc12)C(=O)N[C@@H](Cc1ccccc1)C(=O)N[C@H](C(=O)NCC(=O)N[C@@H](CC(C)C)C(=O)N[C@@H](CCCCN)C(=O)N[C@@H](CCCCN)C(=O)N[C@@H](CC(N)=O)C(=O)NCC(=O)N[C@@H](CO)C(=O)N[C@@H](CO)C(=O)N[C@@H](CCCCN)C(=O)N[C@@H](CCCN=C(N)N)C(=O)NCC(=O)N1CCC[C@H]1C(=O)N[C@@H](CCCN=C(N)N)C(=O)N[C@H](C(N)=O)[C@@H](C)O)C(C)C |  | 20 µM |
